The record followed here is patent US20020055171A1, “PREPARATION OF BIOLOGICALLY ACTIVE 3-METHYLENEOXINDOLE AND DEFINITION OF ITS APPLICATION IN STIMULATION OF PLANT GROWTH AND TISSUE REPAIR” (priority 1998, published 2002).

The subject of test [1] is cuttings from 12-day old bean plants. As to the kind of experiment: Root formation in bean cuttings planted in treated vermiculite. The conditions noted are these: for Average dry wt (grams) of root mass (14 days after treatment): 10 cuttings per treatment. It is filed as in vivo. As to the method: Legend to Table I. Ten (10) cuttings were used per treatment. Cuttings were obtained from 12-day old bean plants by excising each plant above the cotyledonery node. The cuttings were planted in vermiculite treated with various concentrations of the indicated compounds. Fourteen days after treatment, the portion of the cutting subtending the root mass was removed and dried for 48 hrs. at 50° C.

The subject of test [2] is explants of Nicotiana tobaccum, Ficus benjamina, Kalanchoe, and Hosta. As to the kind of experiment: Stage II (multiplication) micropropagation of explants. Format: cell-based. An excerpt: MO produced an equivalent amount of growth at 10^−8 M and maximal growth at 10^−7 M.
Stage II and Stage III micropropagation of various plant species using IAA or MO as auxin source. Explants were placed in various concentrations of sterilized IAA or MO formulated in sterilized agar/mineral salts/kinnin media.

Test [3] concerns Parenchyma tissue from heads of romaine lettuce. As to the kind of experiment: Formation of callus tissue in lettuce parenchyma sections. It is filed as cell-based. The conditions noted are these: 7 days at 26 degrees in the dark, average initial weight 0.04 g. The source says:
Note: Parenchyma tissue was obtained from heads of romaine lettuce. Cylinders measuring 5 mm in diameter and 20 mm in length were removed with a cork borer from the stalks of lettuce heads. The cylinders were sterilized in a 10% solution of commercial bleach (sodium hypochlorite). Three (3) mm wide circular sections were removed from the sterilized cylinders and 10 sections were placed in petri dishes containing various concentrations of auxins and MO formulated in sterilized agar/mineral salts/kinin media. The sections were incubated at 26 degrees in the dark for seven (7) days. At the end of the incubation period, the callus tissue in each treatment was weighed and the average weight of each section was recorded. The average initial weight of the sections was 0.04 g.

The test system of test [4] is plants. In words: Physiological (auxin) responses of plants compared with IAA. The settings on record: MO obtained from purified 3-Brox. The source says:
It is well known that at suitable concentrations, IAA can stimulate the growth of excised stem segments, promote root development in cuttings, and in combination with another group of plant growth substances known as kinins, can regenerate intact plants from single cells or meristematic tissue.

Test [5] deals with hardwood trees. In words: Wound healing (callus formation) on sawed-off branches of hardwood trees, lanolin paste. It is filed as in vivo. The conditions noted are these: final concentration 10^−5M, compared with IAA. An excerpt: Use of pure solutions of MO to stimulate healing in plants by aiding in the formation of callus tissue at the wound site. This would have the prophylactic effect of preventing infection in wounded trees. Application of MO in a solution, gel or lanolin paste preparation induces rapid formation of protective callus tissue. Refer to Table II for data summary. Large branches of hardwood trees were sawed off and treated with either IAA or MO prepared in lanolin paste.

Test [6] concerns explants of various plant species. As to the kind of experiment: Stage III (rooting) micropropagation of explants. The conditions noted are these: Stage III (rooting) medium. Format: cell-based. The source says:
Stage III micropropagation of various plant species using IAA or MO as auxin source. Explants were placed in various concentrations of sterilized IAA or MO formulated in sterilized agar/mineral salts/kinnin media

Test [7] has as its system cuttings from tomatoes, begonias, African violets, roses, soybeans and peas. As to the kind of experiment: Root formation in cuttings from various plants. It is filed as in vivo. The source says: Use of MO and its solutions prepared by novel methods for stimulation of root formation in plant cuttings and as replacement for IAA or synthetic auxins in plant tissue culture. […] Refer to FIG. 2 for typical response of cuttings to test compounds and Table I for data summary.

Test [8] deals with Hosta. As to the kind of experiment: Micropropagation of Hosta in Stage I, II and III media. Format: cell-based. The source says: Photographic evidence showing the comparative response of explants to IAA and MO in Stage II and Stage III growth media is available on request. A description of the photos is provided herein.
Where [9] appears, read: Stage II (multiplication) medium.

With `O=C(O)Cc1c[nH]c2ccccc12` [IAA, Indole-3-acetic acid], the entries for the “Emergence of roots (No. of days after treatment)” value in test [1] (10^−4M), in test [1] (10^−5M) and in test [1] (10^−6M) were 7 days, 7 days and 9 days, respectively. Besides, the “Average dry wt (grams) of root mass (14 days after treatment)” value (from here on “Average dry wt (grams) of root mass”) turned out to be 8 grams in test [1] (10^−4M), 10 grams in test [1] (10^−5M) and 7 grams in test [1] (10^−6M). In addition, the “concentration required to produce maximal growth” value in test [2] (setting [9]) is listed as 10^−5 M. Further, the “Weight in grams of Callus tissue” value in test [3] (10^−4 moles/L) was 0.08 g; in test [3] (10^−5 moles/L) it was 0.25 g; in test [3] (10^−6 moles/L) it was 1.2 g; in test [3] (10^−7 moles/L), 0.80 g; in test [3] (10^−8 moles/L) it was 0.40 g.

For `C=C1C(=O)Nc2ccccc21` [MO, 3-methyleneoxindole], the “fold as effective as IAA in eliciting physiological responses” value in test [4] is on record as 100-1000 fold. Also, the “Emergence of roots (No. of days after treatment)” value is recorded as 4 days in test [1] (10^−6M), 4 days in test [1] (10^−7M) and 6 days in test [1] (10^−8M). Moreover, the “Average dry wt (grams) of root mass” value was 11 grams in test [1] (10^−6M), 13 grams in test [1] (10^−7M) and 10 grams in test [1] (10^−8M). Moreover, the “healing of wound by callus formation” value in test [5] is on record as “healed rapidly by forming callus tissue over the wound”. Also, in test [2] (setting [9]), the “concentration producing growth equivalent to IAA at its most effective concentration” value is 10^−8 M. Also, in test [2] (setting [9]), the “concentration required to produce maximal growth” value is 10^−7 M. The “fold more effective than IAA and the synthetic auxins” value in test [2] (Stage II medium) and in test [6] was 1,000 fold each time. Besides, in test [7], the “root formation compared with IAA, napthaleneacetic acid and indolebutyric acid” value is “more profuse roots in a much shorter time and at significantly lower concentrations”. For the same molecule, the “Weight in grams of Callus tissue” value in test [3] (10^−4 moles/L) worked out at 0.02 g; in test [3] (10^−5 moles/L) it was 0.15 g; in test [3] (10^−6 moles/L) it was 1.5 g; in test [3] (10^−7 moles/L) it was 1.95 g; in test [3] (10^−8 moles/L), 1.75 g. Moreover, the “effectiveness compared with synthetic auxins” value in test [8] was “far more effective than the synthetic auxins”.

`O=C(O)CCCc1c[nH]c2ccccc12` [IBA, indolebutyric acid]: the “Emergence of roots (No. of days after treatment)” value in test [1] (10^−4M) was found to be 9 days; in test [1] (10^−6M) it was 5 days. Besides, the “Average dry wt (grams) of root mass” value is on record as 5 grams in test [1] (10^−4M), 7 grams in test [1] (10^−5M) and 7 grams in test [1] (10^−6M). The “Weight in grams of Callus tissue” value came out at 0.05 g in test [3] (10^−4 moles/L); 0.18 g in test [3] (10^−5 moles/L); 0.70 g in test [3] (10^−6 moles/L); 0.55 g in test [3] (10^−7 moles/L); 0.12 g in test [3] (10^−8 moles/L).

In the case of `O=C(O)Cc1cccc2ccccc12` [NAA, napthaleneacetic acid], the “Emergence of roots (No. of days after treatment)” value in test [1] (10^−4M) worked out at 8 days; in test [1] (10^−5M), 9 days; in test [1] (10^−6M) it was 8 days. The entries for the “Average dry wt (grams) of root mass” value in test [1] (10^−4M), in test [1] (10^−5M) and in test [1] (10^−6M) were 5 grams, 7 grams and 2 grams, respectively. Besides, the “Weight in grams of Callus tissue” value in test [3] (10^−4 moles/L) came to 0.06 g; in test [3] (10^−5 moles/L), 0.15 g; in test [3] (10^−6 moles/L) it was 0.85 g; in test [3] (10^−7 moles/L) it was 0.60 g; in test [3] (10^−8 moles/L), 0.20 g.
